Experimental data published in PubChem BioAssay AID179 (DTP/NCI, 2004).
Activity calls are given as the source filed them.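 Rule for the calls: active = compounds giving half or more protection of infected cells from virus-caused growth loss, again on retest; inactive = the rest.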 Where a SMILES comes first, the peptide text is derived from it. [ ]: non-standard residue; d: D form. The star is where a group is joined. X10 = CC(C)CN(C[C@@H](O)[C@H](Cc1ccc(OCC(=O)*)cc1)NC(=O)O[C@H]1CCOC1)S(=O)(=O)c1ccc(N)cc1; NMeLeu(3R-OH) = CN[C@H](C(=O)O)[C@H](O)C(C)C; NMeL = CN[C@@H](CC(C)C)C(=O)O; NMeV = CN[C@H](C(=O)O)C(C)C; dNMeS = CN[C@H](CO)C(=O)O; Abu = CC[C@H](N)C(=O)O

Test system: CEM cells HIV-1 protection, formazan growth assay
Experiment: NCI AIDS Antiviral Assay
Conditions: for IC50: measured here: growth of uninfected CEM cells
Procedure, shortened: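 Category rules: moderately active means at least 50% protection on retest, and confirmed active means 100% protection reproducibly. The underlying data came from a formazan growth assay in HIV-1-infected CEM cells.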

CCN(CC)CCOc1ccc(/C(C#N)=C/c2ccccc2OCCN(CC)CC)cc1
EC50: > 200 µM | IC50: 2.63 µM

O=c1ccc2ccc(O)cc2o1
EC50: > 1550 µM | IC50: 302 µM

COc1cc(CC2C(=O)NC(=O)NC2=O)ccc1OCc1ccccc1
outcome: inactive

COC(=O)c1cc(C)ccc1C1CN=NC12Cc1ccc(C)cc1C2=O (configuration not stated)
EC50: 145 µM | IC50: 182 µM

O=C1C2c3[nH]c4ccccc4c3[C@@H]3CCCCC3C2C(=O)N1c1ccccc1 (some centres not stated)
outcome: inactive

COc1cc(C)cc2c1OC(c1ccccc1)CC2=O (configuration not stated)
EC50: > 200 µM | IC50: 52.5 µM

CN(C)c1ccc(N=C2N=C(Nc3ccccc3)C(=Nc3ccccc3)S2)cc1
EC50: > 100 µM | IC50: 72.4 µM

NC1CCCCCCC1
EC50: > 200 µM | IC50: > 200 µM

COc1cc(C2SC(N)=Nc3c2c(C)nn3C(=O)Cc2ccccc2)cc(OC)c1OC (configuration not stated)
EC50: 49 µM | IC50: > 200 µM

CCOC(=O)/C(=C\N1C(=O)/C(=C\C(C)=C\c2ccccc2)SC1=S)C(=O)c1ccccc1
EC50: 11 µM | IC50: 13.5 µM

CN(C)C=Nc1c2ccccc2nc2ccccc12
EC50: > 200 µM | IC50: 2.45 µM

COC(OC)[C@@H]1OC[C@@H](O)[C@@H]1n1cnc2c(N)ncnc21
EC50: > 200 µM | IC50: > 200 µM

C=C1CCC2(C(C)=O)COC1(C)O2 (configuration not stated)
outcome: inactive

CC1N(O)C(c2ccccc2)C(c2ccccc2)=[N+]1[O-] (configuration not stated)
EC50: > 200 µM | IC50: > 200 µM

O=C1C(=O)c2ccccc2C(O)=C1C(C1=C(O)c2ccccc2C(=O)C1=O)c1ccc(C(C2=C(O)c3ccccc3C(=O)C2=O)C2=C(O)c3ccccc3C(=O)C2=O)cc1
EC50: > 200 µM | IC50: 9.55 µM

CN(C)C(=N/O)/C(=N\O)N(C)C
outcome: inactive

O=c1[nH]nnc2c1sc1ncccc12
EC50: > 200 µM | IC50: > 200 µM

CCC(=O)/C=C/c1ccccc1
EC50: > 200 µM | IC50: 93.3 µM

O=C1/C(=C/c2ccc(Cl)cc2)NC(=S)N1CN1CCOCC1
EC50: > 200 µM | IC50: 32.4 µM

CC[C@@H]1NC(=O)[C@H]([C@H](O)C(C)C)N(C)C(=O)[C@H](C(C)C)N(C)C(=O)[C@H](CC(C)C)N(C)C(=O)[C@H](CC(C)C)N(C)C(=O)[C@@H](C)NC(=O)[C@H](CCCCNC(=O)COc2ccc(C[C@H](NC(=O)O[C@H]3CCOC3)[C@H](O)CN(CC(C)C)S(=O)(=O)c3ccc(N)cc3)cc2)NC(=O)[C@H](CC(C)C)N(C)C(=O)[C@H](C(C)C)NC(=O)[C@H](CC(C)C)N(C)C(=O)[C@@H](CO)N(C)C1=O (cyclo([NMeLeu(3R-OH)][Abu][dNMeS][NMeL]V[NMeL]K(X10)[dA][NMeL][NMeL][NMeV]))
EC50: 0.0501 µM | IC50: 42.7 µM

COc1cc(/C=N/N=C(\N)NO)cc(OC)c1OC
EC50: > 200 µM | IC50: 105 µM

CC(=O)Nc1ccc2[nH]c(C(=O)N3CC(CCl)c4c3cc([N+](=O)[O-])c3ccccc43)cc2c1 (configuration not stated)
EC50: > 2 µM | IC50: 1.7 µM

Cc1cccc2c(=O)c3c(O)cc(O)cc3[nH]c12
EC50: > 200 µM | IC50: 14.5 µM

O=[N+]([O-])c1ccccc1S(=O)NCc1c(Cl)cccc1Cl (configuration not stated)
EC50: > 200 µM | IC50: > 200 µM

COS(=O)CCOC(=O)c1ccccc1SSc1ccccc1C(=O)OCCS(=O)OC (configuration not stated)
EC50: 112 µM | IC50: > 200 µM

CC1=CP(=O)(c2ccccc2)CC1 (configuration not stated) (tested in a mixture with another compound)
EC50: > 646 µM | IC50: > 646 µM

Cc1ccc(C)c(COCCOCn2ccc(N)nc2=O)c1
EC50: > 200 µM | IC50: > 200 µM

CC1OC(O[C@@H]2C=C3CC[C@@H]4[C@H](CC[C@]5(C)[C@@H](c6ccc(=O)oc6)CC[C@]45O)[C@@]3(C)CC2)C(O)C(O)C1O (some centres not stated)
EC50: > 2 µM | IC50: 0.00468 µM

CN[C@@H]1[C@H](O)[C@H](NC)[C@H]2O[C@@]3(O)C(=O)C[C@@H](C)O[C@H]3O[C@@H]2[C@H]1O
EC50: > 200 µM | IC50: > 200 µM

COc1ccc(NS(=O)(=O)c2ccc3ncn(NS(=O)(=O)c4ccc(I)cc4)c(=O)c3c2)cc1
outcome: inactive

O=S1(=O)C(c2ccccc2)C(N2CCCCC2)C1C1CC2c3ccccc3C1c1ccccc12 (configuration not stated)
EC50: > 200 µM | IC50: 8.32 µM
